ChEMBL document CHEMBL6115036, “Exploration of membrane-active cephalosporin derivatives as potent antibacterial agents against Staphylococcus aureus biofilms and persisters” (Eur J Med Chem, 2025)
In brackets after ≈: the same amount, converted by molar mass. Activity calls are given as the source filed them. The rule behind the calls is not given here.

Tests used:
Staphylococcus aureus [1] = test: Induction of resistance development in norfloxacin-resistant Staphylococcus aureus assessed as fold increase in MIC at sub-MIC measured after 20 passages relative to control; format: functional
Enterococcus faecalis = test: Antimicrobial activity against Enterococcus faecalis incubated for 16 to 18 hrs by broth dilution assay; format: functional; conditions: time 16-18 hrs
Staphylococcus aureus [2] = test: Antimicrobial activity against Staphylococcus aureus incubated for 16 to 18 hrs by broth dilution assay; format: functional; conditions: time 16-18 hrs
[3] = system: Stenotrophomonas maltophilia; test: Antimicrobial activity against Stenotrophomonas maltophilia incubated for 16 to 18 hrs by broth dilution assay; format: functional; conditions: time 16-18 hrs
Escherichia coli = test: Antimicrobial activity against Escherichia coli incubated for 16 to 18 hrs by broth dilution assay; format: functional; conditions: time 16-18 hrs
Staphylococcus aureus [4] = test: Induction of cytoplasmic membrane depolarization in Staphylococcus aureus assessed as increase in fluorescence intensity measured for 20 mins by DiSC3(5) dye based analysis; format: functional, organism-based
Staphylococcus aureus [5] = test: Induction of inner membrane permeability in Staphylococcus aureus assessed as increase in fluorescence intensity measured for 20 mins by PI dye based analysis; format: functional, organism-based
Staphylococcus aureus [6] = test: Antibacterial activity against rifampicin-induced persistant Staphylococcus aureus assessed as decrease in CFU at 100 times MIC measured for 10 hrs; format: functional, organism-based
Staphylococcus aureus [7] = test: Inhibition of biofilm formation in Staphylococcus aureus assessed as reduction in number of live bacterial count at 16 times MIC incubated for 24 hrs; format: functional
[8] = Hemolytic activity in sheep red blood cells incubated for 1 hr; format: toxicity, cell-based, Ovis aries, Erythrocyte
Staphylococcus aureus [9] = test: Induction of cytoplasmic membrane depolarization in Staphylococcus aureus assessed as increase in fluorescence intensity at 32 ug/ml measured for 20 mins by DiSC3(5) dye based analysis; format: functional, organism-based; conditions: dose 32.0 µg/ml
Staphylococcus aureus [10] = test: Induction of inner membrane permeability in Staphylococcus aureus assessed as increase in fluorescence intensity at 32 ug/ml measured for 20 mins by PI dye based analysis; format: functional, organism-based; conditions: dose 32.0 µg/ml
Staphylococcus aureus [11] = test: Disruption of cell membrane in Staphylococcus aureus assessed as nucleic acid leakage at 32 ug/ml measured after 2 hrs by fluorescence based analysis; format: functional, organism-based; conditions: dose 32.0 µg/ml
Staphylococcus aureus [12] = test: Disruption of cell membrane in Staphylococcus aureus assessed as protein leakage at 32 ug/ml measured after 2 hrs by fluorescence based analysis; format: functional, organism-based; conditions: dose 32.0 µg/ml
Staphylococcus aureus [13] = test: Antibacterial activity against Staphylococcus aureus assessed as effect on quiescent cells at 100 to 200 times MIC incubated for 24 hrs; format: functional, organism-based
Staphylococcus aureus [14] = test: Antibacterial activity against Staphylococcus aureus assessed as fold increase in MIC in presence of 50% sheep plasma; format: functional
Staphylococcus aureus [15] = test: Antibacterial activity against Staphylococcus aureus assessed as fold increase in MIC in presence of 50% FBS; format: functional
Staphylococcus aureus [16] = test: Induction of intracellular ROS accumulation in Staphylococcus aureus incubated overnight by DCFH-DA dye based analysis; format: functional, organism-based
[17] = Cytotoxicity against human HeLa cells incubated for 24 hrs by CCK8 assay; format: toxicity, cell-based
[18] = Cytotoxicity against HUVEC cells incubated for 24 hrs by CCK8 assay; format: toxicity, cell-based; conditions: human
Staphylococcus aureus [19] = test: Induction of resistance development in Staphylococcus aureus assessed as fold increase in MIC at sub-MIC measured after 20 passages relative to control; format: functional
Staphylococcus aureus [20] = test: Induction of cytoplasmic membrane depolarization in Staphylococcus aureus assessed as increase in fluorescence intensity at 16 ug/ml measured for 20 mins by DiSC3(5) dye based analysis; format: functional, organism-based; conditions: dose 16.0 µg/ml
Staphylococcus aureus [21] = test: Induction of inner membrane permeability in Staphylococcus aureus assessed as increase in fluorescence intensity at 16 ug/ml measured for 20 mins by PI dye based analysis; format: functional, organism-based; conditions: dose 16.0 µg/ml

SMILES | MIC (Enterococcus faecalis) [µg/mL] | MIC (Staphylococcus aureus [2]) [µg/mL] | MIC [3] [µg/mL] | MIC (Escherichia coli) [µg/mL] | Activity (Staphylococcus aureus [4]) | Activity (Staphylococcus aureus [5]) | HC50 at 1 h [8] [µg/mL] | further results
CC(=O)NC[C@H]1CN(c2ccc(N3CCOCC3)c(F)c2)C(=O)O1 [LINEZOLID] | – | – | – | – | – | – | – | fold change (FC) (Staphylococcus aureus [1]): 4
CCCCCC[n+]1ccc(C(=O)N[C@@H]2C(=O)N3C(C(=O)OC(c4ccccc4)c4ccccc4)=C(COC(C)=O)CS[C@H]23)cc1.[I-] | 128 | 64 | > 128 | > 128 | Active | Active | – | –
CO[C@H]1/C=C/O[C@@]2(C)Oc3c(C)c(O)c4c(O)c(c(/C=N/N5CCN(C)CC5)c(O)c4c3C2=O)NC(=O)/C(C)=C\C=C\[C@H](C)[C@H](O)[C@@H](C)[C@@H](O)[C@@H](C)[C@H](OC(C)=O)[C@@H]1C | – | – | – | – | – | – | – | Activity (Staphylococcus aureus [6]): inactive
CN[C@H](CC(C)C)C(=O)N[C@H]1C(=O)N[C@@H](CC(N)=O)C(=O)N[C@H]2C(=O)N[C@H]3C(=O)N[C@H](C(=O)N[C@H](C(=O)O)c4cc(O)cc(O)c4-c4cc3ccc4O)[C@H](O)c3ccc(c(Cl)c3)Oc3cc2cc(c3O[C@@H]2O[C@H](CO)[C@@H](O)[C@H](O)[C@H]2O[C@H]2C[C@](C)(N)[C@H](O)[C@H](C)O2)Oc2ccc(cc2Cl)[C@H]1O [VANCOMYCIN] | 2 (≈ 1.38 µM) | – | – | – | – | – | > 1280 | Activity (Staphylococcus aureus [7]): ~1 10^5CFU/ml
CCCCCCCCCCCC[n+]1ccc(-c2cc[n+](CC3=C(C(=O)[O-])N4C(=O)[C@@H](NC(=O)Cc5ccccc5)[C@H]4SC3)cc2)cc1.O=C([O-])C(F)(F)F | 4 | 0.25 | > 128 | 128 | – | – | 333 | Activity (Staphylococcus aureus [9]): Active; Activity (Staphylococcus aureus [10]): Active; Activity (Staphylococcus aureus [11]): inactive; Activity (Staphylococcus aureus [12]): inactive
CO/N=C(\C(=O)N[C@@H]1C(=O)N2C(C(=O)O)=C(COC(C)=O)CS[C@H]12)c1csc(N)n1 | – | – | – | – | – | – | – | Activity (Staphylococcus aureus [13]): inactive; Activity (Staphylococcus aureus [6]): inactive
CCCCCCCCCC[n+]1ccc(-c2cc[n+](CC3=C(C(=O)OCc4ccc(OC)cc4)N4C(=O)[C@@H](NC(=O)Cc5ccccc5)[C@H]4SC3)cc2)cc1.[I-].[I-] | 16 | 0.5 | 128 | 128 | – | – | > 1280 | Activity (Staphylococcus aureus [9]): Active; Activity (Staphylococcus aureus [10]): Active
CCCCCCCC[n+]1ccc(SCC2=C(C(=O)O)N3C(=O)[C@@H](NC(=O)Cc4ccccc4)[C@H]3SC2)cc1.O=C([O-])C(F)(F)F | 4 | 0.063 | 128 | 128 | inactive | inactive | – | –
C[C@H]1COc2c(N3CCN(C)CC3)c(F)cc3c(=O)c(C(=O)O)cn1c23 [LEVOFLOXACIN ANHYDROUS] | – | – | – | – | – | – | – | fold change (FC) (Staphylococcus aureus [1]): 16
CCCCCC[n+]1ccc(C(=O)N[C@@H]2C(=O)N3C(C(=O)O)=C(COC(C)=O)CS[C@H]23)cc1.[I-] | > 128 | > 128 | > 128 | > 128 | inactive | inactive | – | –
CCCCCCCCCCCC[n+]1ccc(-c2cc[n+](CC3=C(C(=O)OCc4ccc(OC)cc4)N4C(=O)[C@@H](NC(=O)Cc5ccccc5)[C@H]4SC3)cc2)cc1.[I-].[I-] | 4 | 1 | 32 | 32 | – | – | 273 | Activity (Staphylococcus aureus [9]): Active; Activity (Staphylococcus aureus [10]): Active
CCCCCCCCCCCCCCCC[n+]1ccc(-c2cc[n+](CC3=C(C(=O)OCc4ccc(OC)cc4)N4C(=O)[C@@H](NC(=O)Cc5ccccc5)[C@H]4SC3)cc2)cc1.[I-].[I-] | 8 | 4 | 128 | 128 | – | – | 109 | Activity (Staphylococcus aureus [9]): Active; Activity (Staphylococcus aureus [10]): Active
CCCCCCCC[n+]1ccc(C(=O)N[C@@H]2C(=O)N3C(C(=O)O)=C(COC(C)=O)CS[C@H]23)cc1.[I-] | > 128 | > 128 | > 128 | > 128 | inactive | inactive | – | –
CC[C@H](C)[C@H](NC(=O)CN)C(=O)NCC(=O)N[C@@H](C)C(=O)N[C@H](C(=O)N[C@@H](CC(C)C)C(=O)N[C@@H](CCCCN)C(=O)N[C@H](C(=O)N[C@@H](CC(C)C)C(=O)N[C@H](C(=O)N[C@H](C(=O)NCC(=O)N[C@@H](CC(C)C)C(=O)N1CCC[C@H]1C(=O)N[C@@H](C)C(=O)N[C@@H](CC(C)C)C(=O)N[C@H](C(=O)N[C@@H](CO)C(=O)N[C@@H](Cc1c[nH]c2ccccc12)C(=O)N[C@H](C(=O)N[C@@H](CCCCN)C(=O)N[C@@H](CCCNC(=N)N)C(=O)N[C@@H](CCCCN)C(=O)N[C@@H](CCCNC(=N)N)C(=O)N[C@@H](CCC(N)=O)C(=O)N[C@@H](CCC(N)=O)C(N)=O)[C@@H](C)CC)[C@@H](C)CC)[C@@H](C)O)[C@@H](C)O)C(C)C)C(C)C [MELITTIN] | 2 (≈ 0.703 µM) | – | 8 (≈ 2.81 µM) | – | – | – | – | fold change (FC) (Staphylococcus aureus [14]): >32; fold change (FC) (Staphylococcus aureus [15]): >32; Activity (Staphylococcus aureus [16]): Dose-dependent-effect; CC50 at 24 h [17]: 3.9 µg/mL (≈ 1.37 µM); CC50 at 24 h [18]: 3.8 µg/mL (≈ 1.33 µM)
CCn1cc(C(=O)O)c(=O)c2cc(F)c(N3CCNCC3)cc21 [NORFLOXACIN] | – | – | – | – | – | – | – | fold change (FC) (Staphylococcus aureus [19]): 64; fold change (FC) (Staphylococcus aureus [1]): 64
CCCCCCCCCC[n+]1ccc(C(=O)N[C@@H]2C(=O)N3C(C(=O)OC(c4ccccc4)c4ccccc4)=C(COC(C)=O)CS[C@H]23)cc1.[I-] | 2 | 2 | 32 | 32 | Active | Active | – | –
CCCCCCCC[n+]1ccc(C(=O)N[C@@H]2C(=O)N3C(C(=O)OC(c4ccccc4)c4ccccc4)=C(COC(C)=O)CS[C@H]23)cc1.[I-] | 8 | 16 | 32 | 64 | Active | Active | – | –
CCCCCCCCCCCCNC(=O)c1ccc[n+](CC2=C(C(=O)O)N3C(=O)[C@@H](NC(=O)Cc4ccccc4)[C@H]3SC2)c1.[I-] | 16 | 0.5 | > 128 | > 128 | – | – | 291 | Activity (Staphylococcus aureus [20]): inactive; Activity (Staphylococcus aureus [21]): inactive
O=C(O)c1cn(C2CC2)c2cc(N3CCNCC3)c(F)cc2c1=O [CIPROFLOXACIN] | – | – | – | – | – | – | – | fold change (FC) (Staphylococcus aureus [1]): 64; Activity (Staphylococcus aureus [6]): inactive
CCCCCCCC[n+]1ccc(SCC2=C(C(=O)OCc3ccc(OC)cc3)N3C(=O)[C@@H](NC(=O)Cc4ccccc4)[C@H]3SC2)cc1.O=C([O-])C(F)(F)F | 8 | 0.063 | 128 | 64 | Active | Active | – | –
